“Also recorded” adds a separate entry of the source.
How the values were obtained:
Format in all cases: cell-based, human
MM cell lines = experiment: Cell growth inhibition in panel of MM cell lines; conditions: 96H
Method: The panel of 17 HMCL cell lines were incubated with increasing concentrations of Ironomycin (A), AM23 (B) or vehicle for 96H.
HMCL cell lines were cultured for 4 days in 96-well flat-bottom microtiter plates in RPMI 1640 medium or DMEM medium, 10% or 20% FCS (control medium) in the presence of various compounds. The number of viable cells in culture was determined using the Cell Titer-Glo Luminescent Cell Viability Assay from Promega, Madison, WI, USA using a Centro LB 960 luminometer (Berthold Technologies, Bad Wildbad, Germany).
This test is based on quantitation of the intracellular ATP present, which signals the presence of metabolically active cells. Data are expressed as the mean percentage of six replicates, normalized to the untreated control.
The therapeutic interest of iron metabolism inhibitors AM5 (Ironomycin) and AM23 was further investigated using large collection of 18 MM cell lines (Moreaux J et al. Haematologica 2011; Vikova V et al. Theranostics 2019). The IC50 of Ironomycin and AM23 respectively are illustrated in the Table 5 hereunder: […]

[1] = tested on: CD34+ cells (normal hematopoietic progenitors)
Method: Hematopoietic progenitor colony-forming units assay were performed with CD34+ cells from apheresis of 5 donors. Cells were cultured in hydroxyl-methyl-cellulose medium with or without conventional chemotherapy or Ironomycin (A) or AM-23 (B). CFU-C, CFU-E/BFU-E and CFU-GM, -G, -M were counted after 14 days culture. N=5.

XG-7 and OPM-2 cell line = experiment: Apoptosis with iron supplementation (FeCl3), Annexin V-PE; conditions: 80 μM deferasirox or 100 nM Ironomycin, 4 hours then 72H with FeCl3 100 μM
Method: XG-7 and OPM-2 cell line was pre-incubated with or without 80 μM of deferasirox or 100 nM of Ironomycin, for 4 hours followed by 72H incubation in presence or absence of FeCl3 (100 μM). Apoptosis was assessed using Annexin V-PE staining by flow cytometry.
Annexin V-PE staining for apoptosis analysis was performed using the “PE Annexin V Apoptosis Detection Kit I” (559763, Becton Dickinson).

H3K36me3 = experiment: Western blot of histone methylation; conditions: 24H
Method: (§1) Cells were treated with iron chelators (80 μM Deferasirox), and Ironomycin (IC50 and 200 nM) during 24H. Protein levels of MMSET (isoforms I and II), MYC, H3K36me3 and H3K27me3 were analyzed by western blot. MMSET (isoforms I and II) and MYC signal were normalized by α-tubulin protein level, H3K36me3 and H3K27me3 signal were normalized by total histone 3 protein level.
(§2) The total cell lysates were obtained with RIPA 1× lysis buffer (#9806, Cell Signaling®) according with the supplier recommendations.
(§3) Protein lysates migrate on 10% polyacrylamide gel (NP-0301, Novex, Life Technologies®), in MOPS 1× running buffer (NP0001, Novex, Life Technologies®) or MES 1× running buffer NP-0002, Novex, Life Technologies®) and proteins are transferred to nitrocellulose membrane (1B301001, I-Blot Transfert Starck, NuPAGE, Life Technologies®). The primary antibodies mouse-anti-phospho-Histone H2A.X (Ser139) clone JBW301 ( 1/1000, Merck Millipore), anti-H3K36me3 (#ab9050, abcam®), anti-H3K27me3 (#9733, Cell Signaling®), anti-MMSET (#65127, Cell Signaling® et ab75359, abcam), anti-MYC (#5605, Cell Signaling®) were incubated in TBS-Tween 20 0.1% (Tris-Buffered Saline, pH 7.4) with 5% non-fat milk or Bovine serum albumin (Sigma-Aldrich, A7906). […] Quantification of protein levels was performed with Image J® software (National Institutes of Health, Bethesda, MD, USA).

[2] = tested on: XG-1, XG-7 and OPM-2 cells; experiment: Cell cycle analysis (BrdU incorporation/DAPI, flow cytometry); conditions: IC50 Ironomycin, 72 hours
Method: XG-1, XG-7 and OPM-2 cells were incubated with vehicle or with IC50 Ironomycin for 72 hours. Cell cycle was analyzed using flow cytometry, S phase was stained by an anti-BrdU antibody after BrdU incorporation and DNA content was strained by 4′,6-diamidino-2-phénylindole (DAPI). Histograms represent the mean percentage and SD of each cell cycle phase of three independent experiments. * and ** indicate a significant difference of P<0.05 and P<0.01, respectively with paired student t-test.
The cell cycle progression was studied by flow cytometry using the Apoptosis, DNA Damage, and Cell Proliferation Kit (562253, Becton Dickinson). Briefly, cells were labeled with bromodeoxyuridine (BrdU), an analog of the DNA precursor thymidine that can be incorporated into newly synthesized DNA and detected with an antibody against BrdU to measure cell proliferation. After this labeling, the cells were fixed, permeabilized and treated with DNase to expose the BrdU epitopes. Following this treatment, cells were simultaneously stained with fluorochrome-labeled anti-BrdU, anti-cleaved Poly A DP-ribose polymerase 1 (PARP), anti-H2AX phosphorylated at serine 139. They were also stained with DAPI to determine DNA content. Finally, cells were resuspended in staining buffer and analyzed by flow cytometry (Fortessa, Becton Dickinson).

MYC = experiment: Western blot of MYC protein level; conditions: 24H
Method: as §1, §2, §3

In the case of `C#CCN[C@@H]1C=C[C@]2(O[C@H]([C@@H](CC)C(=O)[C@@H](C)[C@@H](O)[C@H](C)[C@@H]3O[C@@H]([C@@H](CC)C(=O)O)CC[C@@H]3C)[C@@H](C)C[C@H]2C)O[C@@]12CC[C@@](C)([C@H]1CC[C@](O)(CC)[C@H](C)O1)O2` [Ironomycin], the “cell growth inhibition / toxicity on MM cell lines” value (MM cell lines) is reported as “significant cell growth inhibition; also recorded: kill MM cells with nanomolar concentration”, the “toxicity on normal hematopoietic progenitors” value [1] is reported as “low toxicity” and the “effect of iron supplementation on induced apoptosis” value (XG-7 and OPM-2 cell line) is reported as “not reversed by Iron supplementation”. For the same compound, the “effect of iron supplementation on induced apoptosis” value (XG-7 and OPM-2 cell line; listed as ironomycin) was “did not affect”, the H3K36 methylation (H3K36me3) was “significant deregulation of H3K36 methylation” and the “proliferation of MM cells (cell cycle)” value [2] was “inhibition of proliferation of MM cells”. The MYC protein expression (MYC) was “significant downregulation”.
